US10775388B2, “Methods of using antibodies to determine periostin levels in a sample” (MEDIMMUNE, LLC, priority 2014, dated 2020)
“And” between values parts separate entries of the source, which are not always exact repeats. Equal entries are not always repeated.

Assays:
[1] = system: EPIAIRWAY™ tissue (normal and asthmatic lung epithelium); assay: Periostin levels in IL-13 stimulated […] tissue models (sandwich ELISA); type: cell-based, human; settings: stimulated with 50 ng/mL IL-13 for 48 hours
Procedure: Biotin/streptavidin-HRP-based sandwich ELISA assays were performed as follows. Specific details such as anti-periostin capture antibodies, samples to be tested, and anti-periostin detection antibodies are noted for specific experiments in the various examples Variations to standard ELISA protocols are well known to those of ordinary skill in the art, and can be used according to this disclosure.
High binding ELISA plates were coated with an anti-periostin capture mAb, e.g., 4B4.B11 (2 μg/mL in PBS; 100 μL/well), and were incubated overnight at 4° C. The plates were washed three times with 200 μL/well wash buffer (PBS/0.1% TWEEN-20®). Following washing, 200 μL/well block buffer (e.g., PBS/50× dilution of reagent diluent concentrate (available from R & D Systems)/0.05% TWEEN-20® or PBS/3% nonfat dry milk/0.1% TWEEN-20®) was added to each well, and the plates were incubated for one hour at room temperature. The plates were then washed three times as noted above.
For the standard curve, periostin standards (e.g., standards available from R & D Systems Cat #3548-F2) were serially diluted in block buffer, e.g., 2-fold dilutions from 50 ng/mL to 0.78 ng/mL. […] Finally the plates were read on a spectrophotometer at λ=450 nm. […]

[2] = system: patients with uncontrolled asthma; settings: above-median vs below-median baseline serum periostin; cited from earlier work
[3] = system: adults with uncontrolled, severe asthma; assay: Phase 2b study CD-RI-CAT-354-1049 of SC tralokinumab, subgroup analysis by baseline serum periostin; type: in vivo, human; settings: for Asthma exacerbation rate reduction: 300 mg Q2W vs placebo
Procedure: A 5-week screening/run-in period (Week −5 to −1 [Day −1]) preceded randomisation. Starting at Week −4 (Day −28), patients received a fixed-dose combination product of fluticasone/salmeterol, either as an MDI (230 μg/21 μg) at a dose of 2 inhalations twice per day or as a DPI (500 μg/50 μg) at a dose of one inhalation twice per day. If the patient was also taking additional asthma controller medications (including leukotriene modifiers, theophylline, cromones, a secondary ICS, or oral prednisolone 20 mg/day or equivalent OCS), then these medications were to be continued at a stable dose during the screening/run-in and treatment period.
Patients were randomised in a 1:1 ratio to one of 2 cohorts (Cohort 1 or Cohort 2).

[4] = post hoc, 300 mg Q2W, FEV1 reversibility ≥12% and serum periostin < median
[5] = post hoc, 300 mg Q2W, FEV1 reversibility ≥12% and serum periostin ≥ median
[6] = post hoc, reversible patients regardless of serum periostin level

IL-13: 114 amino acid cytokine used to stimulate periostin expression
periostin levels [1]: increase

lebrikizumab: anti-human-IL-13 antibody (SEQ ID NOs 6-7), Roche/Genentech
AER reduction [2]: greater AER reduction
increases in FEV1 [2]: larger increases

tralokinumab: anti-IL-13 monoclonal antibody (SEQ ID NOs 8-9)
percent change from baseline in pre-bronchodilator FEV1 over time ([3]; 300 mg Q2/4W, through to Week 53, periostin < median): No significant increases
Asthma exacerbation rate reduction ([3]; Week 53, ITT (regardless of serum periostin level)): 7%
Asthma exacerbation rate reduction ([3]; Week 53, baseline serum Periostin ≥ Median): 25%
Change from baseline in ACQ-6 ([3]; 300 mg Q2W, ITT): −0.18
Change from baseline in AQLQ ([3]; 300 mg Q2W, ITT): 0.21
Change from baseline in ACQ-6 ([3]; 300 mg Q2W, Periostin < Median): −0.02
Change from baseline in AQLQ ([3]; 300 mg Q2W, Periostin < Median): 0.21
Change from baseline in ACQ-6 ([3]; 300 mg Q2W, Periostin ≥ Median): −0.23
Change from baseline in AQLQ ([3]; 300 mg Q2W, Periostin ≥ Median): 0.22
Percent change from baseline in FEV1 ([3]; 300 mg Q2W, Week 53, ITT (regardless of serum periostin level)): 7.1%
Percent change from baseline in FEV1 ([3]; 300 mg Q2W, Week 53, Periostin < Median): 7.06%
Percent change from baseline in FEV1 ([3]; 300 mg Q2W, Week 53, Periostin ≥ Median): 6.75% and 6.8%
percent change from baseline in pre-bronchodilator FEV1 over time ([3]; 300 mg Q2W, through to Week 53, periostin < median): No significant increases
percent change from baseline in pre-bronchodilator FEV1 over time ([3]; 300 mg Q2W, through to Week 53, periostin >= median): Relative increases
reduction in serum periostin levels ([3]; baseline serum periostin above the median compared to below the median): Greater reduction
increase in FEV1 [3, 4]: 7.62%
reduction in AER [3, 4]: 4%
percentage increase from baseline in pre-bronchodilator FEV1 compared to placebo [3, 5]: 13.85%
reduction in AER [3, 5]: 54%
AER reduction [3, 6]: 34%
increase in FEV1 [3, 6]: 11.07%
serum periostin levels ([3]; soon after the first dose and for the duration of the study): substantially reduced
